Measurements: US20130252983A1, “ACTIVATING PHOSPHORYLATION SITE ON GLUTAMINASE C” (CORNELL UNIVERSITY, priority 2010, published 2013)

Molecular target: T1, GA activity of NIH 3T3 cells stably expressing Dbl or Cdc42(F28L) (Mus musculus, UniProt D3Z7P3)
T1 construct: endogenous in cells; host or cells: NIH 3T3 cells stably expressing Dbl or Cdc42(F28L); mitochondrial fraction
T1 sequence (D3Z7P3 55-603 isoform D3Z7P3-2): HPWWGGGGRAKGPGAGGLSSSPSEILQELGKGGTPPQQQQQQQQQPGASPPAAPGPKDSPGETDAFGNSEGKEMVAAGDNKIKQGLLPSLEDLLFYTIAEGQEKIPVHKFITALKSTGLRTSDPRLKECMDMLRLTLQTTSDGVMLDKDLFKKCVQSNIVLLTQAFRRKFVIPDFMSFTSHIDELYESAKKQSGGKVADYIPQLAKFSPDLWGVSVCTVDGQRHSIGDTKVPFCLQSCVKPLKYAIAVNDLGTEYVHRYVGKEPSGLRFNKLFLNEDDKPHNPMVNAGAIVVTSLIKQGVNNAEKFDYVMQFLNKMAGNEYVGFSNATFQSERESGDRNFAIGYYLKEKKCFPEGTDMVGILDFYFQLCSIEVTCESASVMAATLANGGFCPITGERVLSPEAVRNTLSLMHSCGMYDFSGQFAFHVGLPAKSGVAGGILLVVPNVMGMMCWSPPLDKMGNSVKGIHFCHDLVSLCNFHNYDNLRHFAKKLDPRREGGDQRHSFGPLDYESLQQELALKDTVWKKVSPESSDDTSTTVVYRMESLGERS
Assay: GA activity in mitochondrial fractions of treated transformed NIH 3T3 cells
Assay type: cell-based
Conditions: 10 μM, 48 hours
Description: 100%=620 moles of glutamine hydrolyzed per minute per mole of enzyme. Data represent the average of 3 experiments (±s.d.). […] Following precipitation of the beads and re-suspension, the samples were analyzed by Western blotting with anti-V5 antibody. […] Data represent the average of 3 experiments (±s.d.). […] Data represent the average of 3 experiments (±s.d.). […] Data represent the average of 3 experiments (±s.d.). FIG. 3E NIH 3T3 cells transiently expressing Dbl were assayed for focus formation in the presence of 10 μM 968 alone or together with 7 mM dimethyl α-ketoglutarate. […] 100%=680 nM glutamine hydrolyzed per minute per 10^5 cells. Data are the average of 3 experiments (±s.d.). […] 100%=750 nM glutamine hydrolyzed per minute per 10^5 cells. Data represent the average of 3 experiments (±s.d.).
FIGS. 4A-E illustrate the role of glutaminase C activity in cellular transformation. […] Data represent the average of 3 experiments (±s.d.). […] Data represent the average of 3 experiments (±s.d.). […] 100% represents the activity measured in untreated Dbl-transformed cells. The data represent the average of 2 experiments. […] 100% represents the activity measured in untreated SKBR3 cells. The data represent the average of 2 experiments. […] Data represent the average of 3 experiments (±s.d.).
FIGS. 11A-E illustrate the effects of different treatments on GA activity. […] The addition of Pi stimulated the GA activity in control 3T3 cells, Dbl-expressing cells, and Cdc42(F28L)-expressing cells by ˜6-fold, 2-fold, and 3-fold, respectively. 100% represents the Pi-stimulated activity measured for Dbl-transformed cells that were not treated with 968. Data is the average of 3 experiments (±s.d.). […] The addition of Pi stimulated the GA activity of HMECs, MDA-MB231 cells, and SKBR3 cells by ˜5-fold, 2-fold, and 1.4-fold, respectively. 100% represents the Pi-stimulated activity for SKBR3 cells that were not treated with 968. Data are the average of 3 experiments (±s.d.). […] Mitochondrial fractions were prepared from equal numbers of cells and assayed for GA activity in the presence or absence of 133 mM Pi. The data are plotted as the percentage of GA activity measured for untreated SKBR3 cells and represent the average of 2 experiments. […] 100% represents the Pi-stimulated activity measured for untreated Dbl-transformed cells. The data represent the average of 2 experiments. […] 100% represents the Pi-stimulated activity for untreated SKBR3 cells. The data represent the average of 2 experiments.
Dbl expressing NIH 3T3 cells were treated for 48 hours in the presence or absence of 968 (10 μM), Bay 11-7082 (2 μM) or Rapamycin (100 nM). Mitochondria were then isolated from the treated cells and assayed for glutaminase activity in the absence or presence of phosphate.
Mitochondrial preparations were obtained using the mitochondria isolation kit from QIAGEN (Cat #37612). A suspension containing 2×10^7 cells was transferred into a 50 ml conical tube and centrifuged at 500×g for 10 minutes at 4° C. The pellets were resuspended in 2 ml of ice-cold lysis buffer (supplied by QIAGEN) and incubated for 10 minutes at 4° C. using an end-over-end shaker. The lysates were centrifuged at 1000×g for 10 minutes at 4° C., and the pellets were resuspended in a buffer supplied by the manufacturer and disrupted completely by using a blunt-ended, 23-gauge needle and a syringe, followed by centrifugation at 6000×g for 20 minutes at 4° C. […]

CN(C)c1ccc(C2Nc3ccc4ccccc4c3C3=C2C(=O)CC(C)(C)C3)cc1Br (centres unmarked) [Compound 968, 5-[3-bromo-4-(dimethylamino)phenyl]-2,2-dimethyl-2,3,5,6-tetrahydrobenzo[a]]
GA activity of transformed cells: inhibits their GA activity | sensitivity of basal versus phosphate-stimulated GA activity (with or without 133 mM Pi): basal activity being more sensitive than the phosphate-stimulated activity
